Assay results reported in ChEMBL document CHEMBL4725256, “A critical update on the strategies towards modulators targeting androgen receptors” (Bioorg Med Chem, 2020).

Molecular target: T1, Androgen receptor (Rattus norvegicus, UniProt P15207)
T1 sequence (P15207 whole entry): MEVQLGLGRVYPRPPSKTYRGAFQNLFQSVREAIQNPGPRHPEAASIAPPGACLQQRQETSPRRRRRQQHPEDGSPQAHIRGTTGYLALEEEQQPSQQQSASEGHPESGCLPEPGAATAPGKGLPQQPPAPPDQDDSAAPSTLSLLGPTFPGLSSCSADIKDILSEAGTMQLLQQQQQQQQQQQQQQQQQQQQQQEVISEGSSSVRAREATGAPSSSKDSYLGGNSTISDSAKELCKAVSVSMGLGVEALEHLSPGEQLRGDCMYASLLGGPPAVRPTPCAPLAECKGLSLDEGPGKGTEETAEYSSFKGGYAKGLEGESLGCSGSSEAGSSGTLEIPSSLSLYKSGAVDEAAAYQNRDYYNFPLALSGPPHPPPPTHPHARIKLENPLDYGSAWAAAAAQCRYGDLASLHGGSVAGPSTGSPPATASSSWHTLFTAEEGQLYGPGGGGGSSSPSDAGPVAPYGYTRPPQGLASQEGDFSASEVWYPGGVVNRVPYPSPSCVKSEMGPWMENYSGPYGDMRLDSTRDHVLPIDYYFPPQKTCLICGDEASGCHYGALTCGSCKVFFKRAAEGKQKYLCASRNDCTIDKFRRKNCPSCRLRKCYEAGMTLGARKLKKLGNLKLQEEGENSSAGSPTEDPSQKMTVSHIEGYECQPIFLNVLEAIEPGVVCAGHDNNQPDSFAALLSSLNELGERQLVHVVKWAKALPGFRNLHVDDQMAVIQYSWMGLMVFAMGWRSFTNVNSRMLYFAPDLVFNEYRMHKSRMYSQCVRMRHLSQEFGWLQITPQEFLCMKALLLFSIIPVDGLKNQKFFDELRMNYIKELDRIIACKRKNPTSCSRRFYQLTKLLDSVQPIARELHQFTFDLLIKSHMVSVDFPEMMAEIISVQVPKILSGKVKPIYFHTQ
Experiment: Antagonist activity at recombinant GST/His-tagged rat androgen receptor amino-terminal domain by fluorescence polarization assay

`CC(C)(c1ccc(OCC(O)CO)cc1)c1ccc(OCC(O)CCl)cc1` (stereo unspecified) showed an IC50 of 6 µM.
